We go through eight compounds from publication PMC12655637, “Design, Synthesis, and Mechanistic Study of Novel Ciprofloxacin/Thiazole Chalcone Hybrids as Potential Anticancer Agents” (Pharmaceuticals, 2025).

For orientation: IC50 means the concentration that inhibits the measured activity by half.

One data set deals with tubulin polymerization. Further details: method as in PMID 40308265. To be noted: read-out: IC50 inhibition of tubulin polymerization; cited from earlier work.
Data set [1] is described as follows: In vitro cytotoxicity against normal cell line WI 38. The data set is classed as cell-based. Particulars: human, WI-38 normal cell line; ± SEM. An excerpt: Detailed results of cytotoxicity of compounds 4b and 4d against normal cell
Blank CC Sample No. 4b/WI38 sample no. 4d/WI38
conc. viability conc. viability

Data set [2] relates to non-small-cell lung cancer A459. Further details: method as in PMID 27555286. Particulars: A459 ref 30; cited from earlier work.
Data set [3] relates to human melanoma LOX IMVI cancer cell line. On the set-up: method as in PMID 39406816. To be noted: LOX IMVI ref 33; cited from earlier work.
The subject of data set [4] is renal cancer cell line UO-31. Further details: method as in PMID 29547830. To be noted: UO-31 ref 31; cited from earlier work.
The subject of a further data set is CCRF-CEM. On the set-up: method as in PMID 39338317. To be noted: CCRF-CEM ref 14; cited from earlier work.
A further data set deals with RPMI-8226. Further details: method as in PMID 39338317. Particulars: RPMI-8226 ref 14; cited from earlier work.
The next data set has as its system OVCAR-3. On the set-up: method as in PMID 39338317. Particulars: OVCAR-3 ref 14; cited from earlier work.
A further data set has as its system MDA-MB-468. Further details: method as in PMID 39338317. Particulars: MDA-MB-468 ref 14; cited from earlier work.
For a further data set, the system named is leukemia subpanel. On the set-up: method as in PMID 24090914. To be noted: leukemia subpanel ref 26; cited from earlier work.
The next data set concerns MCF-7. On the set-up: method as in PMID 40308265. Particulars: MCF-7 ref 32; cited from earlier work.
For another data set, the system named is MDAMB-231. On the set-up: method as in PMID 40308265. Particulars: MDAMB-231 ref 32; cited from earlier work.
The subject of a further data set is PC-3. Further details: method as in PMID 40308265. Particulars: PC-3 ref 32; cited from earlier work.
The test system of another data set is HCT-116. Further details: method as in PMID 40308265. Particulars: HCT-116 ref 32; cited from earlier work.

For `COc1ccc(/C=C\c2cc(OC)c(OC)c(OC)c2)cc1O` [CA-4], the half-inhibitory concentration (IC50) in the data set with tubulin polymerization is 8.33 µM.

In data set [1], `COc1cccc2c1C(=O)c1c(O)c3c(c(O)c1C2=O)C[C@@](O)(C(=O)CO)C[C@@H]3O[C@H]1C[C@H](N)[C@H](O)[C@H](C)O1` [Doxorubicin, doxorubicin, reference compound] displayed an IC50 of 19.8 ± 0.68 µM.

As for `O=C(CN1CCN(c2cc3c(cc2F)c(=O)c(C(=O)O)cn3C2CC2)CC1)Nc1ccc(Cl)cc1` [III], the IC50 in [2] was 14.8 µM.

With `O=C(O)c1cn(C2CC2)c2cc(N3CCN(C(=O)CCCN4C(=O)S/C(=C\c5ccc(F)cc5)C4=O)CC3)c(F)cc2c1=O` [IIX], in data set [3], the IC50 is 25.4 µM.

For `O=C(CN1CCN(c2cc3c(cc2F)c(=O)c(C(=O)O)cn3C2CC2)CC1)N/N=C/c1ccccc1O` [IV], the concentration for half-maximal inhibition (IC50) in data set [4] is 0.75 µM.

For the compound `O=C(/C=C/c1ccc(Cl)cc1)c1c[nH]c(=S)s1` [VII], the IC50 was 2.88 µM in the data set with CCRF-CEM, 2.4 µM with RPMI-8226, 2.82 µM in the data set with OVCAR-3 and 2.51 µM in the data set with MDA-MB-468.

`COc1cc(/C=C/C(=O)c2ccc(NC(=O)N3CCN(c4cc5c(cc4F)c(=O)c(C(=O)O)cn5C4CC4)CC3)cc2)cc(OC)c1OC` [VI]: the Selectivity ratio with leukemia subpanel is 6.71.

With `COc1cc(/C=C/C(=O)c2sc(SCC(=O)Nc3nc(-c4ccccc4)cs3)nc2C)cc(OC)c1OC` [V], the IC50 with MCF-7 was 4 µM; in the data set on MDAMB-231, 6 µM; with PC-3, 7 µM; with HCT-116, 8 µM; in the data set on tubulin polymerization, 2.69 µM.
